The results in this text go back to PubChem BioAssay (NCI).

What all share (assay): inhibition of tumour cell growth, NCI panel, 48 h
The test system of test [1] is DLD-1 colon.
Test [2] has as its system DMS 114 small cell lung.
Test [3] concerns DMS 273 small cell lung.
Test [4] has as its system LXFL 529 NSCLC.
The test system of test [5] is M19-MEL melanoma.
The test system of test [6] is MOLT-4 leukemia.
Test [7] relates to SN12C renal.
Test [8] deals with SNB-78 CNS.
Test [9] relates to XF 498 CNS.
Test [10] deals with HOP-62 NSCLC.
Test [11] deals with KM20L2 colon.
For test [12], the system named is RPMI-8226 leukemia.
For test [13], the system named is SF-295 CNS.
The subject of test [14] is HOP-18 NSCLC.
Test [15] has as its system MDA-MB-435.

Structures are written as SMILES.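 The compound was tested at five concentrations on cells cultured in 96-well plates, with a 48-hour exposure period. The concentration for full growth arrest is given as TGI.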

Turning to `COc1ccc(NC(=O)C(C)Oc2ccc(OCC3CCCCC3)cc2)cc1` (stereo not drawn), the TGI in test [1], in test [2], in test [3], in [4], in [5] and in [6] was > 100 µM in each case. Moreover, the TGI in [7], in test [8] and in [9] was > 100 µM in each case.

`C=CCN1/C(=C2\SC(=S)N(c3ccc(C)cc3)C2=O)Sc2c1nc[nH]c2=O`: the TGI in test [1], in [2], in [3], in test [10], in [11] and in test [4] was > 100 µM each time. Also, the TGI in test [5], in test [6], in test [12], in test [13], in test [7] and in test [8] was > 100 µM throughout. For the same compound, the TGI in test [9] was > 100 µM.

Consider `C#CCN(N=O)C(=O)NCCCCC(NC(C)=O)C(=O)NCc1ccccc1` (stereo not drawn), for which the TGI in [1], in test [2], in test [14], in test [10], in test [11] and in test [4] was > 100 µM throughout. The TGI in test [5], in test [6], in test [12], in test [13], in test [7] and in test [8] was > 100 µM in each case. The TGI in test [9] is > 100 µM.

As to `COc1ccc(/C(=C/n2ccnc2)C(O)c2ccc(OC)c(OC)c2)cc1OC` (stereo not drawn), the TGI in [1], in [3], in test [14], in test [10], in test [11] and in test [5] was > 100 µM throughout. The TGI in [6], in test [12], in test [13] and in [7] was > 100 µM in each case.

Take `CC(=O)O[C@@]12CO[C@@H]1C[C@@H](O)[C@@]1(C)C(=O)[C@H](O)C3=C(C)[C@@H](OC(=O)[C@H](O)[C@@H](NC(=O)c4ccccc4)c4ccccc4)C[C@@](O)([C@@H](OC(=O)c4ccccc4)C12)C3(C)C` (stereo partly drawn): the TGI in test [2] was 22.8 µM; in [3], 13.5 µM; in [10], > 69.7 µM; in test [11] it was 0.0985 µM; in test [5], 70.9 µM; in test [6], > 42.5 µM. In addition, the TGI was > 100 µM in test [12], 8.52 µM in test [13] and > 100 µM in test [7].

`O=C(NC(Cc1cnc[nH]1)C(=O)N1CCCC1)C1CCCC1` (stereo not drawn): the TGI in [10], in test [15], in test [6], in [12], in test [13] and in test [7] was > 100 µM each time.

For the compound `O=C(O)[C@H](Cc1ccccc1)NCCN1CCC[C@H]1C(=O)O`, the TGI in [10], in [15], in test [6], in [12], in [13] and in test [7] was > 100 µM throughout.

As to `CC(=O)OCC1OC(O[C@@H]2C[C@H]3C(C)(C)[C@@H](OC(C)=O)CC[C@]3(C)[C@H]3CC[C@]45C[C@]4(CC[C@H]5[C@@H](C)C[C@@H](O)[C@H](O)C(C)(C)F)[C@@]32C)C(O)C(O)C1O` (stereo partly drawn), the TGI is > 100 µM in test [10]; 31.6 µM in test [15]; 4.28 µM in test [6]; 4.24 µM in test [12]; > 100 µM in [13]; 3.23 µM in test [7].

Consider `O=C1OC(C2(O)OC(=O)c3ccccc32)c2ccccc21` (stereo not drawn), for which the TGI in [10], in test [15], in test [6], in test [12], in test [13] and in test [7] was > 100 µM throughout.

As to `CCNC12CCC(C1)C(C)(C)C2=O` (stereo not drawn), the TGI in [10], in test [15], in test [6], in test [12], in test [13] and in test [7] was > 100 µM in each case.

With `CC(C)(C)OC(=O)NCCCC(=O)NC1(c2cc3ccccc3s2)CCCCC1`, the TGI in test [10] was found to be 41.5 µM; in test [15] it was 33.1 µM; in test [6] it was 34.4 µM; in test [12], 29.6 µM; in test [13], 34 µM; in [7], 35.9 µM.

As for `CC(C)(C)OC(=O)NCCNCCNc1ccccc1`, the TGI in [10], in test [15], in test [6], in [12], in [13] and in test [7] was > 100 µM throughout.

Consider `O=c1[nH]c(=O)n(C2CC(O)C(CO)O2)c2nc3ccc4cc5ccccc5cc4c3nc12` (stereo not drawn), for which the TGI in test [10], in [15], in test [6], in test [12], in test [13] and in [7] was > 100 µM in each case.

For the compound `O=C(CCc1ccccc1)n1cccc1CO`, the TGI in test [10], in [15], in [6], in test [12], in [13] and in test [7] was > 100 µM throughout.

For the compound `CC(C)C[C@H](NC(=O)[C@H](Cc1ccc(F)cc1)NC(=O)c1ccccn1)B(O)O`, the TGI is < 0.01 µM in [10]; < 0.01 µM in test [15]; > 100 µM in test [6]; > 100 µM in test [12]; < 0.01 µM in [13]; < 0.01 µM in test [7].

Consider `Cn1c2ccccc2c(=O)c2cccc(C(=O)NCC(=O)O)c21`, for which the TGI in [10], in [15], in test [6], in [12], in test [13] and in test [7] was > 100 µM throughout.

Regarding `CCN(CC)c1ccc2nc3ccc(N=Nc4c(O)ccc5ccccc45)cc3[n+](-c3ccccc3)c2c1`, the TGI in [10], in test [15], in test [6], in test [12], in [13] and in test [7] was > 100 µM throughout.

For the compound `COc1ccc(C2=C(N)c3ncccc3C2=O)cc1`, the TGI in [10], in test [15], in [6], in [12], in [13] and in [7] was > 100 µM each time.

As for `O=S(=O)(SC1=NCCN1)c1cccc2ccccc12`, the TGI in test [10] is > 100 µM; in test [15], > 100 µM; in test [6], 95.9 µM; in [12], 66.6 µM; in [13] it was 51.2 µM; in test [7], 48.1 µM.

For `C#Cc1cc(Br)c(OC(=O)C(C)(C)C)c(-c2cc(C#C)cc(Br)c2OC(=O)C(C)(C)C)c1`, the TGI in [10] is > 100 µM; in test [15], > 100 µM; in test [6], > 100 µM; in [12], 46.4 µM; in [13], > 100 µM; in test [7] it was > 100 µM.

Regarding `COC(=O)C1Cc2ccc3c(c2C1=O)CCCC3` (stereo not drawn), the TGI in test [10], in test [15], in test [6], in test [12], in test [13] and in test [7] was > 100 µM each time.

Regarding `O=c1[nH]nc(-c2ccccc2)n1/N=C/c1ccccc1Cl`, the TGI in [10] was > 100 µM; in test [15] it was 60.2 µM; in test [6] it was 56.5 µM; in [12] it was 94.4 µM; in test [13], > 100 µM; in test [7], > 100 µM.

As to `ONC1=Nc2ccccc2C(=S)N2CSCC12` (stereo not drawn), the TGI was > 100 µM in [10]; 48.1 µM in [15]; > 100 µM in test [6]; > 100 µM in test [12]; > 100 µM in test [13]; > 100 µM in test [7].

As to `O=c1cc(N=Nc2ccc(Cl)c(Cl)c2)[nH]c(=O)[nH]1`, the TGI in [10] came out at 19.2 µM; in test [15] it was 17.6 µM; in test [6], 6.48 µM; in test [12], 5.6 µM; in test [13] it was 32.5 µM; in test [7], 4.79 µM.

For the compound `O=S1(=O)OCCOS(=O)(=O)C1Cc1cccc2ccccc12`, the TGI was 49.1 µM in test [10]; 32 µM in test [15]; 65.9 µM in test [6]; 85.3 µM in [12]; > 100 µM in test [13]; 62.2 µM in [7].

In the case of `Cc1ccnc2[nH]c(-c3ccc(F)cc3)cc(=O)c12`, the TGI was > 100 µM in test [10]; > 44.8 µM in test [15]; > 100 µM in test [6]; > 100 µM in [12]; > 100 µM in [13]; > 100 µM in [7].

For `CCOC(=O)c1c(C)n(C)c2c1cc(O)c1[nH]c3c(c12)CCCC3`, the TGI in test [10] was > 100 µM; in test [15], 29.6 µM; in test [6], 45.6 µM; in test [12] it was 18.7 µM; in test [13] it was > 100 µM; in test [7], 61.3 µM.

In the case of `Oc1c(Br)cc(/C=C/c2cccc(/C=C/c3cc(Br)c(O)c(Br)c3)n2)cc1Br`, the TGI is > 100 µM in [10]; 46.5 µM in test [15]; 14.7 µM in test [6]; 27.5 µM in test [12]; 47.4 µM in test [13]; 24.3 µM in test [7].

As to `O=C(NNC(=S)NCc1ccccc1)c1csc(NC(=S)NC2CCCCC2)n1`, the TGI in test [10] is > 100 µM; in test [15], 82.9 µM; in test [6], > 100 µM; in [12] it was 58.2 µM; in test [13] it was > 100 µM; in [7], 95.7 µM.

Turning to `CSc1nc(C)c(CCOC(C)=O)c(Cl)n1`, the TGI in [10], in test [15], in test [6], in test [12], in test [13] and in [7] was > 100 µM in each case.

For `CCCCCCCCCCCCCCCCCCNc1nc(=O)n(C2CC(O)C(COP(=O)(O)OCC3OC(n4ccc(N)nc4=O)C(O)C3O)O2)cc1F` (stereo not drawn), the TGI in test [10], in [15], in [6], in [12], in test [13] and in test [7] was > 100 µM throughout.

Consider `Cc1ccc2c(ccc(/C=C\c3cc(C)c4cccnc4c3O)[n+]2C)c1`, for which the TGI in [1] turned out to be 4.36 µM; in [2], 7.54 µM; in [3], 21.4 µM; in test [14], 9.28 µM; in test [10] it was 27.6 µM; in test [11], 33.3 µM. For the same compound, the TGI was 18.9 µM in [4]; 28.4 µM in test [6]; 21.6 µM in [12]; 26.9 µM in test [13]; 24.7 µM in test [7].

Take `COc1cc2c(cc1O)C1(Cc3ccc4c(c3C1=O)OCO4)N(C)CC2` (stereo not drawn): the TGI in test [10], in test [15], in test [6], in test [12], in test [13] and in test [7] was > 100 µM in each case.

Regarding `CC(=O)c1ccc2c(c1)CC1(C2)Cc2ccc3c(c2C1=O)CCC3` (stereo not drawn), the TGI was > 100 µM in test [10]; 45.3 µM in test [15]; > 100 µM in test [6]; > 100 µM in test [12]; > 100 µM in [13]; > 100 µM in [7].
